Drawing on patent US20090018116A1, “Therapeutic Compounds” (ASTRAZENECA AB, priority 2004, published 2009), this text covers Ki, EC50 and Emax for three molecules.

In assay [1] the target is T1, Human CB1 receptor (Homo sapiens, UniProt P21554).
T1 construct: purchased Receptor Biology
As to the kind of experiment: hCB1 receptor binding (3H-CP55,940 displacement). As to conditions: hCB1 membranes, Ki=IC50/(1+[rad]/Kd). The protocol:
The total and non-specific binding are determined in the absence and presence of 0.2 μM of HU210 respectively. The plates are vortexed and incubated for 60 minutes at room temperature, filtered through Unifilters GF/B (presoaked in 0.1% polyethyleneimine) with the Tomtec or Packard harvester using 3 mL of wash buffer (50 mM Tris, 5 mM MgCl2, 0.5 mg BSA pH 7.0). The filters are dried for 1 hour at 55° C. The radioactivity (cpm) is counted in a TopCount (Packard) after adding 65 μl/well of MS-20 scintillation liquid.
Based on the above assays, the dissociation constant (Ki) for a particular compound of the invention towards a particular receptor is determined using the following equation:
[rad] is a standard or reference radioactive ligand concentration at that moment; and
Kd is the dissociation constant of the radioactive ligand towards the particular receptor.

For assay [2], the target named is T1, Human CB1 receptor. The assay can be described thus: hCB1 GTPγS binding. Format: biochemical. As to conditions: hCB1 membranes, GTPg35S binding; for Emax: maximal stimulation with 10 μM Win 55,212-2. How it is done:
Human CB1 receptor from Receptor Biology (hCB1) or human CB2 receptor membranes (BioSignal) are thawed at 37° C., passed 3 times through a 25-gauge blunt-end needle and diluted in the GTPγS binding buffer (50 mM Hepes, 20 mM NaOH, 100 mM NaCl, 1 mM EDTA, 5 mM MgCl2, pH 7.4, 0.1% BSA). […] The basal and maximal stimulated binding is determined in absence and presence of 1 μM (hCB2) or 10 μM (hCB1) Win 55,212-2 respectively. The membranes are pre-incubated for 5 minutes with 56.25 μM (hCB2) or 112.5 μM (hCB1) GDP prior to distribution in plates (15 μM (hCB2) or 30 μM (hCB1) GDP final). The plates are vortexed and incubated for 60 minutes at room temperature, filtered on Unifilters GF/B (presoaked in water) with the Tomtec or Packard harvester using 3 ml of wash buffer (50 mM Tris, 5 mM MgCl2, 50 mM NaCl, pH 7.0). The filters are dried for 1 hour at 55° C. The radioactivity (cpm) is counted in a TopCount (Packard) after adding 65 μl/well of MS-20 scintillation liquid. Antagonist reversal studies are done in the same way except that (a) an agonist dose-response curve is done in the presence of a constant concentration of antagonist, or (b) an antagonist dose-response curve is done in the presence of a constant concentration of agonist.

T1 sequence (P21554 whole entry): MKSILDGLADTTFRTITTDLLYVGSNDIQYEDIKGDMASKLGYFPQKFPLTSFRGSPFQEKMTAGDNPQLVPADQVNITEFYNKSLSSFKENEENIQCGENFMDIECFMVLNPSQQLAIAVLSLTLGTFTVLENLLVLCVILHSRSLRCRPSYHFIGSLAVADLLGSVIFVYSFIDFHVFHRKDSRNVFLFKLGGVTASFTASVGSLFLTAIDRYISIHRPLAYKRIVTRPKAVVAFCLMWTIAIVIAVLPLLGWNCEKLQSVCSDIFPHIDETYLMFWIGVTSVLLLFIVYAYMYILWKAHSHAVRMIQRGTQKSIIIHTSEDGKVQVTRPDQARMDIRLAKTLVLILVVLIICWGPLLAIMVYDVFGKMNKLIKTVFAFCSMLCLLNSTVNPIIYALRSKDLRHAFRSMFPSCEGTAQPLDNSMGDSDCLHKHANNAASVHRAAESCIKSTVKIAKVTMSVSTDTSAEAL

With `O=C(NCC1CCC1)c1cc(Cl)ccc1NC(=O)c1cccc2ccccc12` [Example 17, N-[4-Chloro-2-[[(cyclobutylmethyl)amino]carbonyl]phenyl]-1-naphthalenecarboxamide], affinity at Human CB1 receptor [1] was put at a Ki of 0.0073 µM. Also, at Human CB1 receptor [2], the concentration for a half-maximal effect (EC50) – broadly, the concentration needed to bring the measured effect to its halfway point – amounted to 0.041 µM and the maximal response (Emax) – broadly, the greatest response seen or fitted, relative to the assay's reference – was 95%.
In the same order, the values of `O=C(NC1CCOCC1)c1cc(Cl)ccc1NC(=O)c1cccc2ccccc12` [Example 30, N-[4-Chloro-2-[[(tetrahydro-2H-pyran-4-yl)amino]carbonyl]phenyl]-1-naphthalenecarboxamide] are 0.071 µM, 0.304 µM and 109%.
Consider `O=C(NCC1CCCCC1)c1c(O)cccc1NC(=O)c1cccc2ccccc12` [Example 49, N-[2-[[(Cyclohexylmethyl)amino]carbonyl]-3-hydroxyphenyl]-1-naphthalenecarboxamide], for which, on Human CB1 receptor [2], the maximal response (Emax) worked out at 109%.
